The results in this text go back to patent publication US20250084116A1, “MIXTURE OF STEREOISOMERS OF A SULFATED GLYCOLIPID” (NATIONAL RESEARCH COUNCIL OF CANADA, priority 2022, published 2025).

Entries after “also recorded” stand apart in the source; their conditions may differ.

The subject of assay [1] is C57BL/6NCrl mice. As to the kind of experiment: In vivo cytotoxicity assay of Ova-CD8+ T cells. The conditions noted are these: for In vivo cytotoxicity of Ova-CD8+ T cells, comparison with AddaVax-Ova (ANOVA, Tukey): 10 μg Ova and 1 mg SLA, target cells injected day 27, read day 28; for Change in cytotoxic killing on reducing SLA dose: 1.0 mg reduced to 0.3 mg SLA; for CD8+ T cell cytotoxicity at lower Ova antigen or SLA adjuvant dose: lower dose (1 μg Ova or 0.3 mg SLA) versus optimal dose. The text has this:
(§1) C57BL/6NCrl mice (6-8 weeks) were obtained from Charles River Laboratories (Saint-Constant, QC, Canada). Mice were maintained in individually ventilated cages with five female mice to a cage with easy access to food and water in a specific pathogen-free small animal facility with automatically controlled light/dark cycles, humidity and temperature at the National Research Council of Canada (NRC) in accordance with the guidelines of the Canadian Council on Animal Care. The animal use protocol (2016.08) was approved by the NRC Animal Care Committee. All mice were randomized upon entering the facility and were immunized and had samples collected and tested in a blinded method.
(§2) C57BL/6NCrl mice were immunized by i.m. injection (50 μL) into the left tibialis anterior muscle. All mice were immunized twice in a prime/boost regime on day 0 and day 21. Blood samples were taken for sera collection before boost on day 20 as well as on day 28 immediately prior to euthanasia where whole spleens were collected in necropsy.
(§3) SLA archaeosomes were prepared as described previously.^12 Briefly, SLA lipids (SLA-1, SLA-2 or SLA-3) were dissolved in chloroform/methanol and aliquoted to a glass vial; the organic solvent was removed under N2 gas with mild heating to form a thin lipid layer. A vacuum was applied for at least 2 h to ensure total removal of trace solvents. The lipid film was then hydrated with 1.0 mL of Milli-Q water and was shaken for 2 h at 40° C. or until hydration was completed. Archaeosome vesicles were reduced in size using a tabletop ultrasonic water bath (Fisher Scientific FS60H, 130 W and operating frequency of 40 kHz) and high pressure; they were then left to anneal at 4° C. for 12 h in static conditions and finally filter-sterilized through 0.22 μm filter units. The Ova protein solution (type VI, Sigma-Aldrich, Oakville, ON, Canada) was then added to the empty archaeosomes at the desired amount immediately before immunization so that a single dose contained 1 mg or 0.3 mg of SLA and 10 μg or 1 μg of antigen. The commercial adjuvant AddaVax™ (squalene-oil-in-water emulsion, Invivogen, San Diego, CA, USA) was prepared according to manufacturer's recommendations and mixed with 10 μg Ova protein at 1:1, v:v. The TLR4 agonist monophosphoryl Lipid A (MPLA from S. Minnesota R595 VacciGrade, InvivoGen, San Diego, CA, USA) was combined with Alum (Alhydrogel™ “85”, aluminum hydroxide, Brenntag Biosector, Frederikssund, Denmark), 10 μg: 40 μg respectively and 1 μg Ova. All solutions were brought to a physiological pH of 7.4 in phosphate-buffered saline (PBS).
The activity of antigen-specific CD8^+ T cells (CTL) was measured in vivo as previously described.^10 Briefly, donor spleen-cell suspensions from naïve C57BL/6NCrl mice were prepared. Cells were split into two aliquots. One aliquot was incubated at 37° C. with […] SIINFEKL (JPT Peptide Technologies GmbH) in RIO complete medium (RPMI 1640 with 10% heat-inactivated fetal bovine serum, 1% penicillin/streptomycin, 1% glutamine and 55 μM 2-mercaptoethanol) (Thermo Fisher Scientific, Waltham, MA, USA). After 30 min of incubation, the peptide-pulsed aliquot was stained with a high 10× concentration of CFSE (2.5 μM; Thermo Fisher Scientific); the second non-peptide-pulsed aliquot was stained with 1×CFSE ([…]). Two aliquots of cells (10×10^6/each) were mixed 1:1 and injected into previously immunized recipient mice. Mice injected with Ova alone dissolved in PBS served as controls. At ˜20 to 22 h after the donor cell transfer, spleens were removed from recipients, single-cell suspensions prepared, and cells analyzed by flow cytometry on a BD Fortessa flow cytometer (Becton Dickinson, Franklin Lakes, NJ, USA). The in vivo percentage of peptide pulsed targets relative to non-peptide pulsed targets was enumerated according to a previously published equation.^21, 24-25
(§4) Data were analyzed using GraphPad Prism 9® (GraphPad Software, San Diego, CA, USA). […]

For assay [2], the system named is C57BL/6NCrl mice. As to the kind of experiment: Anti-Ova total IgG titres in serum of immunized mice (ELISA). The conditions noted are these: day 28, two immunizations, 1 μg Ova and 1 mg SLA. It is filed as in vivo.
Excerpt: as §1
C57BL/6NCrl mice were immunized by i.m. injection (50 μL) into the left tibialis anterior muscle. All mice were immunized twice in a prime/boost regime on day 0 and day 21. […]
Anti-Ova total IgG titers in mouse serum were quantified by ELISA as described previously.^11-12 Briefly, 96-well high-binding ELISA plates (Thermo Fisher Scientific, Waltham, MA, USA) were coated overnight with 10 μg/mL of the Ova protein used for immunization. […] No detectable titers were measured in serum samples from naïve control animals.
as §4

The test system of assay [3] is C57BL/6NCrl mice. As to the kind of experiment: Enumeration of IFN-γ secreting Ova-CD8+ T cells in spleen by ELISPOT. It is filed as in vivo. Conditions: for Number of IFN γ-secreting Ova-CD8+ T cells, comparison with AddaVax-Ova (ANOVA, Tukey) / Number of IFN γ-secreting Ova-CD8+ T cells, comparison with MPL/alum-Ova (ANOVA, Tukey): 10 μg Ova and 1 mg SLA; for Change in ability to induce IFN-γ+ Ova-CD8+ T cells on reducing SLA dose: 1.0 mg reduced to 0.3 mg SLA; for Differences between SLA formulations to produce IFN-γ+ Ova-CD8+ T cells: at each dose tested.
Excerpt: as §1, §2, §3
The Enumeration of IFN-γ secreting cells was done by use of an ELISPOT assay as previously described.^12 Briefly, spleen cells (at a final cell density of 4×10^5 cells/well) were added to 96-well ELISPOT plates coated with anti-IFN-γ (Mabtech Inc., Cincinnati, OH, USA), and incubated in the presence of a peptide stimulant (or non-stimulant control) for 20 h at 37° C., 5% CO2. Peptide stimulant consisted of SIINFEKL, an Ovalbumin CD8^+ T cell epitope Ova257-264. Plates were then incubated, washed and developed using AEC substrate (Becton Dickinson, Franklin Lakes, NJ, USA) and counted using an automated ELISPOT plate reader by BIOSYS (Miami, FL, USA).
Data were analyzed using GraphPad Prism 9® (GraphPad Software, San Diego, CA, USA). Antibody titers were log transformed prior to testing and shown as geometric mean titer (GMT) with the lower and upper 95% confidence interval shown in the graph and written in the text. All in vivo generated data were analyzed with the one-way analysis of variance (ANOVA) test followed by post-hoc analysis using Tukey's multiple comparisons test (comparisons among all groups), as indicated in the figure legends. For all analyses, differences were considered to be not significant with p>0.05.

Regarding `CC(C)CCCC(C)CCCC(C)CCCC(C)CCOC[C@@H](CO[C@@H]1O[C@H](CO)[C@@H](O[C@@H]2O[C@H](COS(=O)(=O)O)[C@H](O)[C@H](O)[C@H]2O)[C@H](O)[C@H]1O)OCCC(C)CCCC(C)CCCC(C)CCCC(C)C` (stereo partly drawn) [SLA-1, 6′-sulfate-β-D-Galp-(1,4)-β-D-Glcp-(1,1)-archaeol, reference compound], in assay [1], the “In vivo cytotoxicity of Ova-CD8+ T cells, comparison with AddaVax-Ova (ANOVA, Tukey)” value is reported as “SLA-1>AddaVax™-Ova”; the “Change in cytotoxic killing on reducing SLA dose” value is on record as “significantly reduces”; the “CD8+ T cell cytotoxicity at lower Ova antigen or SLA adjuvant dose” value is recorded as “lower CD8^+ T cell cytotoxicity”. The “Anti-Ova IgG titres, comparison with MPL/alum (one-way ANOVA, Tukey)” value in assay [2] is reported as “SLA-1>MPL/alum-Ova”. In assay [3] (day 28), the “Number of IFN γ-secreting Ova-CD8+ T cells, comparison with AddaVax-Ova (ANOVA, Tukey)” value is “SLA-1>AddaVax™-Ova” and the “Number of IFN γ-secreting Ova-CD8+ T cells, comparison with MPL/alum-Ova (ANOVA, Tukey)” value is reported as “SLA-1>MPL/alum-Ova”. For the same molecule, in assay [3], the “Change in ability to induce IFN-γ+ Ova-CD8+ T cells on reducing SLA dose” value is on record as “significantly reduces” and the “Differences between SLA formulations to produce IFN-γ+ Ova-CD8+ T cells” value is given as “no statistically significant differences”.

For the molecule `CC(C)CCCC(C)CCCC(C)CCCC(C)CCOCC(CO[C@@H]1OC(CO)C(O[C@@H]2OC(COS(=O)(=O)O)C(O)[C@H](O)C2O)[C@H](O)C1O)OCCC(C)CCCC(C)CCCC(C)CCCC(C)C` (mixture of isomers) [SLA-3], in assay [1], the “In vivo cytotoxicity of Ova-CD8+ T cells, comparison with AddaVax-Ova (ANOVA, Tukey)” value was “SLA-3>AddaVax™-Ova”; the “Change in cytotoxic killing on reducing SLA dose” value is listed as “Lesser reductions”; the “CD8+ T cell cytotoxicity at lower Ova antigen or SLA adjuvant dose” value is reported as “lower CD8^+ T cell cytotoxicity”. Also, the “Adjuvant effectiveness relative to SLA-1 (cytotoxic killing)” value in assay [1] (FIG. 8) is listed as “at least as effective as SLA-1”. In addition, in assay [2], the “Anti-Ova IgG titres, comparison with MPL/alum (one-way ANOVA, Tukey)” value is “SLA-3>MPL/alum-Ova”. In addition, in assay [3] (day 28), the “Number of IFN γ-secreting Ova-CD8+ T cells, comparison with AddaVax-Ova (ANOVA, Tukey)” value was “SLA-3>AddaVax™-Ova” and the “Number of IFN γ-secreting Ova-CD8+ T cells, comparison with MPL/alum-Ova (ANOVA, Tukey)” value is given as “SLA-3>MPL/alum-Ova”. In assay [3], the “Change in ability to induce IFN-γ+ Ova-CD8+ T cells on reducing SLA dose” value is “Lesser reductions” and the “Differences between SLA formulations to produce IFN-γ+ Ova-CD8+ T cells” value is recorded as “no statistically significant differences”. Further, the “Adjuvant effectiveness relative to SLA-1 (IFN-γ ELISPOT)” value in assay [3] (FIG. 7) is given as “at least as effective as SLA-1; also recorded: as effective an adjuvant as semi-synthetically produced SLA”.

On to “Ova: Ova protein (type VI, Sigma-Aldrich), model antigen; unadjuvanted control group [reference compound]”, for which the IFN-γ detectable spots entry in assay [3] (Ova antigen alone, unadjuvanted, day 28) was “less than three”.
